Measured values reported in US9078446B2, “Use of N-(tetrazol-4-yl)- or N-(triazol-3-yl)arylcarboxamides or their salts for controlling unwanted plants in areas of transgenic crop plants being tolerant to HPPD inhibitor herbicides” (BAYER INTELLECTUAL PROPERTY GMBH, priority 2011, dated 2015).

Tests used:
Assay type in all cases: in vivo
[1] = tested on: transgenic tobacco plants expressing HPPD from Kordia algicida FMP27; assay: Symptoms due to herbicide application on transgenic tobacco plants (damage classes 0-3); details: 50 g Al/ha, one week after application
Text: (§1) Genes coding for the selected HPPD were obtained from a member of the group of organisms consisting of Avena sativa, Pseudomonas fluorescens mutant G336W, Blepharisma japonicum and Kordia algicida and cloned into the binary vector pBin19 allowing the integration of DNA into the tobacco genome, under the control of the CaMV35S promoter. For the cloning procedures, see A2 above for Avena sativa, see B2 above for Pseudomonas fluorescens, mutant G336W, see PCT/EP2010/070567 (published as WO 2011/076882, Example 5; for Blepharisma japonicum (FMP37) and see PCT/EP2010/070575, Example 5 for Kordia algicida (FMP27). Between the sequence corresponding to the promoter and the sequence coding for the HPPD a DNA sequence coding for a transit peptide to the chloroplast was inserted, in order to add at the N-terminal extremity of the protein a target signal to allow the localization of the HPPD protein into the plant chloroplast.
(§2) Seeds harvested from TO transformants will be put on standard soil for germination. Three weeks later plantlets (T1) will be transferred to single pots and grown under standard cultivation conditions (PCT/EP2010/070575, published as WO 2011/076889). Two weeks later, plants were sprayed with several N-(tetrazol-4-yl)- or N-(triazol-3-yl)arylcarboxamides as defined above.
(§3) Tables F1 to F5: Evaluation of the Symptoms Observed Due to the Application of the Herbicides on Transgenic Tobacco Plants, Expressing the Mutant Pseudomonas fluorescens HPPD G336W, the Avena HPPD (AvHPPD), the HPPD from Kordia algicida FMP27 or the HPPD from Blepharisma japonicum (FMP37), Compared to Non-Tranformed Tobacco Plants (“Wt”).
(§4) The herbicides (with “g Al/ha” meaning “g active ingredient/ha”) were applied on 8 to 10 plants originated from 1 to 3 independent transgenic events per transgene.
(§5) The symptoms were evaluated and classified as following: • 3=Very strong damage • 2=Strong damage • 1=Light and transient damage • 0=No damage

[2] = tested on: transgenic tobacco plants expressing HPPD from Blepharisma japonicum (FMP37); assay: as above; details: 50 g Al/ha, one week after application
Text: as §1, §2, §3, §4, §5

[3] = tested on: transgenic tobacco plants expressing mutant Pseudomonas fluorescens HPPD G336W (PfHPPD-G336W); assay: as above; details: PfHPPD-G336W line 646; 50 g Al/ha; one week after application
Text: as §1, §2, §3, §4, §5

[4] = tested on: transgenic tobacco plants expressing Avena HPPD (AvHPPD); assay: as above; details: AvHPPD line 659; 50 g Al/ha; one week after application
Text: as §1, §2, §3, §4, §5

[5] = tested on: cotton plants expressing FMP 27 and FMP 37; assay: Tolerance to HPPD inhibitors of cotton plants expressing tolerant HPPD enzymes; details: T1 cotton plants; one week after application
Text: (§6) Genes coding for the selected HPPD were obtained from a member of the group of organisms consisting of Blepharisma japonicum and Kordia algicida and cloned into an appropriate binary vector allowing the integration of DNA into the cotton genome, under the control of the CaMV35S promoter. For the respective cloning procedures, see WO2011076882 (PCT/EP2010/070567), Example 11; for Blepharisma japonicum (FMP37) and WO2011076889 (PCT/EP2010/070575), Example 11 for Kordia algicida (FMP27).
Between the sequence corresponding to the promoter and the sequence coding for the HPPD a DNA sequence coding for a transit peptide to the chloroplast was inserted, in order to add at the N-terminal extremity of the protein a target signal to allow the localization of the HPPD protein into the plant chloroplast. Cotton transformation was achieved as described in Example 12 of WO2011076882 (PCT/EP2010/070567) for Blepharisma japonicum (FMP37) and WO2011076889 (PCT/EP2010/070575) for Kordia algicida (FMP27). Seeds from T0 events showing tolerance to tembotrione were harvested.
T1 Cotton seeds were transferred to single pots and grown under standard cultivation conditions, see WO2011076882 (PCT/EP2010/070567) for Blepharisma japonicum (FMP37) and WO2011076889 (PCT/EP2010/070575) for Kordia algicida (FMP27).
At least 4 weeks later, plants will be sprayed with several N-(tetrazol-4-yl)- or N-(triazol-3-yl)arylcarboxamides as defined above.

[6] = tested on: soybean plants expressing Pseudomonas fluorescens G336W mutant, FMP 27 and FMP 37; assay: Tolerance to HPPD inhibitors of soybean plants expressing tolerant HPPD enzymes; details: T1 soybean plants; one week after application
Text: as §6, with “the soybean” for “the cotton”, “Example 9;” for “Example 11;”, “Example 9” for “Example 11”
Between the sequence corresponding to the promoter and the sequence coding for the HPPD a DNA sequence coding for a transit peptide to the chloroplast was inserted, in order to add at the N-terminal extremity of the protein a target signal to allow the localization of the HPPD protein into the plant chloroplast. By using the vectors “pFCO112” (Blepharisma japonicum, WO2011076882), pFCO116 (Korida algicida, WO2011076889), and pFCO117” (see Example B2, above), soybean transformation was achieved as described in Example 10 of WO2011076882 (PCT/EP2010/070567) for Blepharisma japonicum (FMP37) and WO2011076889 (PCT/EP2010/070575) for Kordia algicida (FMP27). Seeds from TO events showing tolerance to tembotrione were harvested.
T1 Soybean seeds were transferred to single pots and grown under standard cultivation conditions, see WO2011076882.
Two weeks later, plants will be sprayed with several N-(tetrazol-4-yl)- or N-(triazol-3-yl)arylcarboxamides as defined above.

[7] = tested on: non-transformed tobacco plants (Wt); assay: Symptoms due to herbicide application on tobacco plants (damage classes 0-3); details: 50 g Al/ha, one week after application
Text: as §2, §3, §4, §5

[8] = tested on: transgenic tobacco plants expressing tolerant HPPD enzymes; assay: Tolerance of tobacco plants expressing tolerant HPPD enzymes (all transgenes)
Text: as §1, §2, §3, §4, §5

Which “number of plants with Damage 0 (No damage)” value (from here on “number … (No damage)”) ([1]; FMP27 line 733) does the source give for `Cn1nnnc1NC(=O)c1ccc(C(F)(F)F)cc1S(C)(=O)=O` [Compound 4-25] here?
The value was 9.

What about the “number of plants with Damage 1 (Light and transient damage)” value (shortened to “number … (Light and transient damage)”) ([1]; FMP27 line 733) of the same molecule?
The value was 1.

And the “number of plants with Damage 2 (Strong damage)” value (“number … (Strong damage)” for short) ([1]; FMP27 line 733)?
Its value is 0.

And the “number of plants with Damage 3 (Very strong damage)” value (shortened to “number … (Very strong damage)”) ([1]; FMP27 line 733)?
Its value is 0.

What about the “number … (No damage)” value ([1]; FMP27 line 734) of the same molecule?
The value was 6.

What about the “number … (Light and transient damage)” value ([1]; FMP27 line 734) of the same molecule?
The value was 3.

And the “number … (Strong damage)” value ([1]; FMP27 line 734)?
Its value is 0.

And the “number … (Very strong damage)” value ([1]; FMP27 line 734)?
Its value is 1.

What about the “number … (No damage)” value ([1]; FMP27 line 735) of the same molecule?
The value was 5.

And the “number … (Light and transient damage)” value ([1]; FMP27 line 735)?
Its value is 3.

And the “number … (Strong damage)” value ([1]; FMP27 line 735)?
Its value is 0.

And the “number … (Very strong damage)” value ([1]; FMP27 line 735)?
Its value is 0.

And the “number … (No damage)” value ([2]; FMP37 line 749)?
The value was 8.

What about the “number … (Light and transient damage)” value ([2]; FMP37 line 749) of the same molecule?
Its value is 0.

What about the “number … (Strong damage)” value ([2]; FMP37 line 749) of the same molecule?
Its value is 0.

What about the “number … (Very strong damage)” value ([2]; FMP37 line 749) of the same molecule?
Its value is 2.

What about the “number … (No damage)” value ([2]; FMP37 line 754) of the same molecule?
The value was 3.

And the “number … (Light and transient damage)” value ([2]; FMP37 line 754)?
The value was 5.

And the “number … (Strong damage)” value ([2]; FMP37 line 754)?
Its value is 1.

And the “number … (Very strong damage)” value ([2]; FMP37 line 754)?
The value was 1.

What about the “number … (No damage)” value ([2]; FMP37 line 795) of the same molecule?
Its value is 7.

And the “number … (Light and transient damage)” value ([2]; FMP37 line 795)?
The value was 0.

What about the “number … (Strong damage)” value ([2]; FMP37 line 795) of the same molecule?
Its value is 1.

And the “number … (Very strong damage)” value ([2]; FMP37 line 795)?
Its value is 2.

What about the “number … (No damage)” value [3] of the same molecule?
Its value is 10.

And the “number … (Light and transient damage)” value [3]?
The value was 0.

What about the “number … (Strong damage)” value [3] of the same molecule?
The value was 0.

And the “number … (Very strong damage)” value [3]?
The value was 0.

What about the “number … (No damage)” value [4] of the same molecule?
Its value is 6.

And the “number … (Light and transient damage)” value [4]?
Its value is 1.

What about the “number … (Strong damage)” value [4] of the same molecule?
Its value is 0.

What about the “number … (Very strong damage)” value [4] of the same molecule?
Its value is 3.

What about the “tolerance of transgenic plants compared to the wild-type cotton plants” value [5] of the same molecule?
Its value is “superior tolerance”.

What about the “tolerance of transgenic plants compared to the wild-type soybean plants” value [6] of the same molecule?
The value was “superior tolerance”.

What about the “number … (No damage)” value [7] of the same molecule?
The value was 0.

What about the “number … (Light and transient damage)” value [7] of the same molecule?
The value was 0.

What about the “number … (Strong damage)” value [7] of the same molecule?
Its value is 0.

What about the “number … (Very strong damage)” value [7] of the same molecule?
Its value is 10.

And the “tolerance of the transgenic tobacco plants (symptoms due to application of the herbicide)” value ([8]; T1 plants sprayed, evaluated one week after application)?
The value was “good tolerance”.

And the “sensitivity of transgenic tobacco plants compared to wild type (wt) plants” value ([8]; all tested independent lines, agronomically relevant dose)?
The value was “less sensitive”.
